{"source": "patent US20230264009A1", "about": "“DISINFECTING CAP KIT FOR LUER ACCESS DEVICES” (SterileCare Inc., priority 2022, published 2023)", "key": {"MRSA ON184 [1]": {"system": "MRSA ON184", "assay": "MBC/MFC determination", "type": "cell-based, Staphylococcus aureus", "conditions": "alone", "experimental": "(§1) An assay was made using a minimum inhibitory concentration (MIC) and minimum bactericidal concentration (MBC) and minimum fungicidal concentration (MFC) determination. The MIC was determined by the micro broth dilution method in 96-well plates. Serial two-fold dilutions of tetrasodium EDTA (from 2% to 0.015%), ethanol (from 50% to 0.1%) and chlorhexidine HCl (from 100 µg/mL to 0.025 µg/mL) were prepared in MH broth with a final volume of 90 µL per well. A 10 µL containing 1 × 10^5 bacterial cells or 2 × 10^3 fungal cells were added to each well. The inoculated plates were covered with a lid, sealed with Parafilm, and incubated for 24 h at 37° C. with slight rocking on a tilting platform shaker. After incubation, the optical density at 600 nm (OD 600 ) of the cultures in each well was measured using an xMark™ Microplate Absorbance Spectrophotometer (Bio-Rad). […] MBCs and MFCs were determined by transferring 100 µL from each well with no apparent growth onto appropriate agar plates, followed by incubation for 24 h at 37° C."}, "S. epidermidis SK9 [2]": {"system": "S. epidermidis SK9", "assay": "MIC, micro broth dilution", "type": "cell-based, Staphylococcus epidermidis", "conditions": "alone, 24 h", "experimental": "as §1"}, "MRSA ON184 [3]": {"system": "MRSA ON184", "assay": "Checkerboard titration, FMCI", "type": "cell-based, Staphylococcus aureus", "experimental": "as §1\n(§2) A fourth composition and solution included tetrasodium EDTA with ethanol or chlorhexidine HCl. This fourth composition and solution were created using checkerboard titration methods using micro broth dilution in 96-well microtiter plates. The concentrations of antimicrobials used were based on previously determined MIC values. Briefly, 200 µL of two-fold dilutions of tetrasodium EDTA and ethanol or chlorhexidine HCl were prepared in MH or MH II broth with standardized cell suspension. […] Microtiter plates were incubated at 37° C. for 24 h, and the results were analyzed. Each test was performed in duplicate and included a growth control without adding any antimicrobials."}, "S. epidermidis SK9 [4]": {"system": "S. epidermidis SK9", "assay": "MBC/MFC determination", "type": "cell-based, Staphylococcus epidermidis", "conditions": "alone", "experimental": "as §1"}, "C. albicans ON47 biofilm": {"system": "C. albicans ON47 biofilm", "assay": "MBEC Assay, 48-h biofilm, 24 h exposure", "type": "cell-based, Candida albicans", "experimental": "A biofilm cultivation cell composition was provided. This fifth composition was created using an MBEC Assay® biofilm inoculator, consisting of a polystyrene lid with 96 downward-protruding pegs and a corresponding base used to grow biofilms. A standardized inoculum was diluted in an appropriate biofilm growth medium to achieve a viable cell count of 1.5 × 10^6 CFU/mL of bacterial cells or […] CFU/mL of fungal cells. Then, 150 µL of this inoculum was transferred into each appropriate well, and the peg lids were inserted into the microtiter plates. The plates were sealed with Parafilm and were incubated at optimum temperature for 48 h with slight rocking for bacteria and shaking at 200 rpm for fungal strains. After incubation, the peg lid was removed from the base and rinsed twice with sterile phosphate-buffered saline (PBS) for 2 min to remove loosely attached non-sessile cells. Before the antimicrobial challenge, the pegs in column 1 (n = 8) were considered the biofilm growth control; these pegs were removed from the lids, placed into 200 µL of recovery medium, and analyzed for starting biofilm cell numbers as described below. […] MBEC values were determined as the minimum concentration of antimicrobials that yielded a viable cell count at or lower than the 125 CFU/mL detection limit."}, "[5]": {"system": "48-h-old biofilms of bacterial and fungal strains", "assay": "MBEC Assay, 24 h exposure (summary)", "type": "cell-based", "conditions": "following 24 h of treatment", "experimental": "A biofilm cultivation cell composition was provided. This fifth composition was created using an MBEC Assay® biofilm inoculator, consisting of a polystyrene lid with 96 downward-protruding pegs and a corresponding base used to grow biofilms. A standardized inoculum was diluted in an appropriate biofilm growth medium to achieve a viable cell count of 1.5 × 10^6 CFU/mL of bacterial cells or […] CFU/mL of fungal cells. Then, 150 µL of this inoculum was transferred into each appropriate well, and the peg lids were inserted into the microtiter plates. The plates were sealed with Parafilm and were incubated at optimum temperature for 48 h with slight rocking for bacteria and shaking at 200 rpm for fungal strains. After incubation, the peg lid was removed from the base and rinsed twice with sterile phosphate-buffered saline (PBS) for 2 min to remove loosely attached non-sessile cells. Before the antimicrobial challenge, the pegs in column 1 (n = 8) were considered the biofilm growth control; these pegs were removed from the lids, placed into 200 µL of recovery medium, and analyzed for starting biofilm cell numbers as described below. […] After the antimicrobial challenge, the pegs were rinsed twice with sterile PBS for 2 min and placed into a new 96-well plate containing 200 µL of recovery medium. The recovery plates were sealed with Parafilm, and biofilm cells were dislodged from the pegs by sonication for 30 min with a Branson 3510 bath sonicator. The biofilm cells in the recovery medium were serially diluted, and a drop dilution assay was performed to enumerate the viable cells. MBEC values were determined as the minimum concentration of antimicrobials that yielded a viable cell count at or lower than the 125 CFU/mL detection limit."}, "Proteus mirabilis ON153": {"system": "Proteus mirabilis ON153", "assay": "Checkerboard titration, FICI", "type": "cell-based", "conditions": "P. mirabilis ON153", "experimental": "as §2"}, "Serratia marcescens SK2": {"system": "Serratia marcescens SK2", "assay": "Checkerboard titration, FICI", "type": "cell-based", "conditions": "S. marcescens SK2", "experimental": "as §2"}, "Escherichia coli ON29": {"system": "Escherichia coli ON29", "assay": "Checkerboard titration, FICI", "type": "cell-based", "conditions": "E. coli ON29", "experimental": "as §2"}, "[6]": {"system": "Stenotrophomonas maltophilia ON17", "assay": "Checkerboard titration, FICI", "type": "cell-based", "conditions": "S. maltophilia ON17", "experimental": "as §2"}, "Candida albicans SK4b": {"system": "Candida albicans SK4b", "assay": "Checkerboard titration, FICI", "type": "cell-based", "conditions": "C. albicans SK4b", "experimental": "as §2"}, "[7]": {"system": "Staphylococcus epidermidis ON170", "assay": "Checkerboard titration, FICI", "type": "cell-based", "conditions": "S. epidermidis ON170", "experimental": "as §2"}, "[8]": {"conditions": "tetrasodium EDTA + chlorhexidine HCl"}}}
{"smiles": "O=C([O-])CN(CCN(CC(=O)[O-])CC(=O)[O-])CC(=O)[O-].[Na+].[Na+].[Na+].[Na+]", "note": "[EDTA, tetrasodium EDTA]", "values": [{"measurement": "MBC/MFC", "setting": "MRSA ON184 [1]", "result": 2, "unit": "% w/v"}, {"measurement": "MIC", "setting": "S. epidermidis SK9 [2]", "result": 0.063, "unit": "% w/v"}, {"measurement": "Concentration in combination giving FMCI", "setting": "MRSA ON184 [3]; [8]", "result": 0.125, "unit": "% w/v"}, {"measurement": "Concentration in combination giving FMCI", "setting": "MRSA ON184 [3]; tetrasodium EDTA + ethanol", "result": 0.031, "unit": "% w/v"}, {"measurement": "MBC/MFC", "setting": "S. epidermidis SK9 [4]", "result": 0.5, "unit": "% w/v"}, {"measurement": "MBEC", "setting": "C. albicans ON47 biofilm", "result": 1, "unit": "% w/v"}, {"measurement": "Concentration alone able to eradicate all established biofilms", "setting": "[5]", "result": 4, "unit": "%"}, {"measurement": "Concentration in combination giving FICI", "setting": "Proteus mirabilis ON153; [8]", "result": 0.063, "unit": "% w/v"}, {"measurement": "Concentration in combination giving FICI", "setting": "Proteus mirabilis ON153; tetrasodium EDTA + ethanol", "result": 0.5, "unit": "% w/v"}, {"measurement": "Concentration in combination giving FICI", "setting": "Serratia marcescens SK2; [8]", "result": 0.063, "unit": "% w/v"}, {"measurement": "Concentration in combination giving FICI", "setting": "Serratia marcescens SK2; tetrasodium EDTA + ethanol", "result": 0.5, "unit": "% w/v"}, {"measurement": "Concentration in combination giving FICI", "setting": "Escherichia coli ON29; [8]", "result": 0.008, "unit": "% w/v"}, {"measurement": "Concentration in combination giving FICI", "setting": "Escherichia coli ON29; tetrasodium EDTA + ethanol", "result": 0.25, "unit": "% w/v"}, {"measurement": "Concentration in combination giving FICI", "setting": "[6]; [8]", "result": 0.015, "unit": "% w/v"}, {"measurement": "Concentration in combination giving FICI", "setting": "[6]; tetrasodium EDTA + ethanol", "result": 0.031, "unit": "% w/v"}, {"measurement": "Concentration in combination giving FICI", "setting": "Candida albicans SK4b; [8]", "result": 0.063, "unit": "% w/v"}, {"measurement": "Concentration in combination giving FICI", "setting": "Candida albicans SK4b; tetrasodium EDTA + ethanol", "result": 0.25, "unit": "% w/v"}, {"measurement": "Concentration in combination giving FICI", "setting": "[7]; [8]", "result": 0.063, "unit": "% w/v"}, {"measurement": "Concentration in combination giving FICI", "setting": "[7]; tetrasodium EDTA + ethanol", "result": 0.015, "unit": "% w/v"}]}
